In article PMC3775947 (Clinical lymphoma, myeloma & leukemia, 2013):
Where two headings read alike, the source gives them in different places.

How the values were obtained:
[1] = system: elderly patients with newly diagnosed AML; test: Phase I dose escalation: dose-limiting toxicities and maximum tolerated dose; format: in vivo, human
[2] = system: elderly patients with newly diagnosed AML; test: AML response assessed by investigators; format: in vivo, human
patients with AML = conditions: cited from earlier work
[3] = Plasma pharmacokinetics of barasertib, barasertib-hQPA and LDAC; conditions: for Css, barasertib: geometric mean (CV%)
[4] = system: elderly patients with newly diagnosed AML
[5] = all patients, barasertib + LDAC, n=22
[6] = barasertib 800 mg + LDAC 400 mg, n=6
[7] = barasertib 1000 mg + LDAC 400 mg, n=13
[8] = barasertib 1200 mg + LDAC 400 mg, n=3
[9] = Total, barasertib 800-1200 mg + LDAC 400 mg, n=22
[10] = combination treatment barasertib + LDAC
[11] = overall, barasertib + LDAC, n=22

SMILES: CCN(CCCOc1ccc2c(Nc3cc(CC(=O)Nc4cccc(F)c4)n[nH]3)ncnc2c1)CCOP(=O)(O)O [Barasertib]
- Tolerability of dose level ([1]; barasertib 1200 mg + LDAC): non-tolerated
- DLTs reported ([1]; in vivo): No DLTs
- Overall response rate (International Working Group criteria; by investigator opinion) ([2]; all patients, barasertib + LDAC, n=10/22): 45%
- Complete response with incomplete recovery of neutrophils and/or platelets, patients [2, 5]: 9%
- Partial response, patients [2, 5]: 9%
- Best clinical response: CR (complete response) [2, 6]: 2 n
- Best clinical response: CRi (complete response with incomplete recovery of neutrophils and/or platelets) [2, 6]: 0 n
- Best clinical response: ORR (overall response rate) [2, 6]: 3 (50) n (%)
- Best clinical response: PR (partial response) [2, 6]: 1 n
- Best clinical response: CR (complete response) [2, 7]: 3 n
- Best clinical response: CRi (complete response with incomplete recovery of neutrophils and/or platelets) [2, 7]: 2 n
- Best clinical response: ORR (overall response rate) [2, 7]: 6 (46) n (%)
- Best clinical response: PR (partial response) [2, 7]: 1 n
- Response rate ([2]; barasertib 1000 mg cohort + LDAC, 6/13 patients): 46%
- Best clinical response: CR (complete response) [2, 8]: 1 n
- Best clinical response: CRi (complete response with incomplete recovery of neutrophils and/or platelets) [2, 8]: 0 n
- Best clinical response: ORR (overall response rate) [2, 8]: 1 (33) n (%)
- Best clinical response: PR (partial response) [2, 8]: 0 n
- Complete response, patients with adverse cytogenetic risk ([2]; barasertib + LDAC, n=7): 14%
- Complete responses (CR or CRi), patients with intermediate risk cytogenetics ([2]; barasertib + LDAC, n=9): 44%
- Incidence of febrile neutropenia (patients with AML; barasertib monotherapy Phase I study): 47%
- Lowest dose associated with clinical activity (patients with AML; barasertib): 400 mg
- Steady-state plasma concentrations observed from, after start of infusion ([3]; 7-day continuous iv infusion of barasertib, Day 1, maintained until EOI): 24 h
- Time following EOI at which levels were generally undetectable ([3]; plasma, LLOQ 0.25 ng/mL): 2 h
- Css, barasertib ([3]; plasma, barasertib 800 mg + LDAC 400 mg, n=6): 46.7 (55.8) ng/mL
- Css, barasertib ([3]; plasma, barasertib 1000 mg + LDAC 400 mg, n=13): 44.4 (55.5) ng/mL
- Css, barasertib ([3]; plasma, barasertib 1200 mg + LDAC 400 mg, n=3): 64.9 (67.4) ng/mL
- Grade ≥3 febrile neutropenia, patients ([4]; MTD of barasertib 1000 mg + LDAC): 69%
- Alopecia, AE (any cause; all grades) [4, 9]: 6 (27) n (%)
- Anemia, grade ≥3 adverse event [4, 9]: 2 (9) n (%)
- Any AE (any cause; all grades) [4, 9]: 22 (100) n (%)
- Any grade ≥3 AE [4, 9]: 21 (96) n (%)
- Confusional state, AE (any cause; all grades) [4, 9]: 5 (23) n (%)
- Constipation, AE (any cause; all grades) [4, 9]: 6 (27) n (%)
- Cough, AE (any cause; all grades) [4, 9]: 4 (18) n (%)
- Decreased appetite, AE (any cause; all grades) [4, 9]: 4 (18) n (%)
- Diarrhea, AE (any cause; all grades) [4, 9]: 10 (46) n (%)
- Diarrhea, grade ≥3 adverse event [4, 9]: 2 (9) n (%)
- Febrile neutropenia, AE (any cause; all grades) [4, 9]: 13 (59) n (%)
- Febrile neutropenia, grade ≥3 adverse event [4, 9]: 13 (59) n (%)
- Headache, AE (any cause; all grades) [4, 9]: 5 (23) n (%)
- Hemorrhoids, AE (any cause; all grades) [4, 9]: 4 (18) n (%)
- Hypertension, AE (any cause; all grades) [4, 9]: 4 (18) n (%)
- Insomnia, AE (any cause; all grades) [4, 9]: 4 (18) n (%)
- Musculoskeletal pain, AE (any cause; all grades) [4, 9]: 4 (18) n (%)
- Nausea, AE (any cause; all grades) [4, 9]: 11 (50) n (%)
- Neutropenia, AE (any cause; all grades) [4, 9]: 4 (18) n (%)
- Neutropenia, grade ≥3 adverse event [4, 9]: 4 (18) n (%)
- Oropharyngeal pain, AE (any cause; all grades) [4, 9]: 5 (23) n (%)
- Peripheral edema, AE (any cause; all grades) [4, 9]: 9 (41) n (%)
- Petechiae, AE (any cause; all grades) [4, 9]: 6 (27) n (%)
- Pneumonia, AE (any cause; all grades) [4, 9]: 6 (27) n (%)
- Pneumonia, grade ≥3 adverse event [4, 9]: 3 (14) n (%)
- Pyrexia, AE (any cause; all grades) [4, 9]: 5 (23) n (%)
- Rash, AE (any cause; all grades) [4, 9]: 4 (18) n (%)
- Stomatitis, AE (any cause; all grades) [4, 9]: 9 (41) n (%)
- Peripheral edema, patients [4, 5]: 41%
- Stomatitis, patients [4, 5]: 41%
- Alopecia, AE (any cause; all grades) [4, 6]: 2 n
- Anemia, grade ≥3 adverse event [4, 6]: 2 n
- Any AE (any cause; all grades) [4, 6]: 6 n
- Any grade ≥3 AE [4, 6]: 6 n
- Confusional state, AE (any cause; all grades) [4, 6]: 2 n
- Constipation, AE (any cause; all grades) [4, 6]: 3 n
- Cough, AE (any cause; all grades) [4, 6]: 1 n
- Decreased appetite, AE (any cause; all grades) [4, 6]: 2 n
- Diarrhea, AE (any cause; all grades) [4, 6]: 5 n
- Diarrhea, grade ≥3 adverse event [4, 6]: 1 n
- Febrile neutropenia, AE (any cause; all grades) [4, 6]: 4 n
- Febrile neutropenia, grade ≥3 adverse event [4, 6]: 4 n
- Headache, AE (any cause; all grades) [4, 6]: 3 n
- Hemorrhoids, AE (any cause; all grades) [4, 6]: 1 n
- Hypertension, AE (any cause; all grades) [4, 6]: 0 n
- Insomnia, AE (any cause; all grades) [4, 6]: 0 n
- Musculoskeletal pain, AE (any cause; all grades) [4, 6]: 2 n
- Nausea, AE (any cause; all grades) [4, 6]: 4 n
- Neutropenia, AE (any cause; all grades) [4, 6]: 1 n
- Neutropenia, grade ≥3 adverse event [4, 6]: 1 n
- Oropharyngeal pain, AE (any cause; all grades) [4, 6]: 1 n
- Peripheral edema, AE (any cause; all grades) [4, 6]: 2 n
- Petechiae, AE (any cause; all grades) [4, 6]: 3 n
- Pneumonia, AE (any cause; all grades) [4, 6]: 3 n
- Pneumonia, grade ≥3 adverse event [4, 6]: 0 n
- Pyrexia, AE (any cause; all grades) [4, 6]: 3 n
- Rash, AE (any cause; all grades) [4, 6]: 2 n
- Stomatitis, AE (any cause; all grades) [4, 6]: 3 n
- Stomatitis, grade ≥3 adverse event [4, 6]: 0 n
- Thrombocytopenia, grade ≥3 adverse event (grade 4) [4, 6]: 1 n
- Vomiting, AE (any cause; all grades) [4, 6]: 3 n
- Alopecia, AE (any cause; all grades) [4, 7]: 4 n
- Anemia, grade ≥3 adverse event [4, 7]: 0 n
- Any AE (any cause; all grades) [4, 7]: 13 n
- Any grade ≥3 AE [4, 7]: 12 n
- Confusional state, AE (any cause; all grades) [4, 7]: 3 n
- Constipation, AE (any cause; all grades) [4, 7]: 3 n
- Cough, AE (any cause; all grades) [4, 7]: 3 n
- Decreased appetite, AE (any cause; all grades) [4, 7]: 1 n
- Diarrhea, AE (any cause; all grades) [4, 7]: 5 n
- Diarrhea, grade ≥3 adverse event [4, 7]: 1 n
- Febrile neutropenia, AE (any cause; all grades) [4, 7]: 9 n
- Febrile neutropenia, grade ≥3 adverse event [4, 7]: 9 n
- Headache, AE (any cause; all grades) [4, 7]: 2 n
- Hemorrhoids, AE (any cause; all grades) [4, 7]: 3 n
- Hypertension, AE (any cause; all grades) [4, 7]: 3 n
- Insomnia, AE (any cause; all grades) [4, 7]: 3 n
- Musculoskeletal pain, AE (any cause; all grades) [4, 7]: 2 n
- Nausea, AE (any cause; all grades) [4, 7]: 6 n
- Neutropenia, AE (any cause; all grades) [4, 7]: 2 n
- Neutropenia, grade ≥3 adverse event [4, 7]: 2 n
- Oropharyngeal pain, AE (any cause; all grades) [4, 7]: 4 n
- Peripheral edema, AE (any cause; all grades) [4, 7]: 7 n
- Petechiae, AE (any cause; all grades) [4, 7]: 2 n
- Pneumonia, AE (any cause; all grades) [4, 7]: 3 n
- Pneumonia, grade ≥3 adverse event [4, 7]: 3 n
- Pyrexia, AE (any cause; all grades) [4, 7]: 2 n
- Rash, AE (any cause; all grades) [4, 7]: 2 n
- Stomatitis, AE (any cause; all grades) [4, 7]: 4 n
- Stomatitis, grade ≥3 adverse event [4, 7]: 2 n
- Thrombocytopenia, grade ≥3 adverse event (grade 4) [4, 7]: 1 n
- Vomiting, AE (any cause; all grades) [4, 7]: 2 n
- Alopecia, AE (any cause; all grades) [4, 8]: 0 n
- Anemia, grade ≥3 adverse event [4, 8]: 0 n
- Any AE (any cause; all grades) [4, 8]: 3 n
- Any grade ≥3 AE [4, 8]: 3 n
- Confusional state, AE (any cause; all grades) [4, 8]: 0 n
- Constipation, AE (any cause; all grades) [4, 8]: 0 n
- Cough, AE (any cause; all grades) [4, 8]: 0 n
- Decreased appetite, AE (any cause; all grades) [4, 8]: 1 n
- Diarrhea, AE (any cause; all grades) [4, 8]: 0 n
- Diarrhea, grade ≥3 adverse event [4, 8]: 0 n
- Febrile neutropenia, AE (any cause; all grades) [4, 8]: 0 n
- Febrile neutropenia, grade ≥3 adverse event [4, 8]: 0 n
- Headache, AE (any cause; all grades) [4, 8]: 0 n
- Hemorrhoids, AE (any cause; all grades) [4, 8]: 0 n
- Hypertension, AE (any cause; all grades) [4, 8]: 1 n
- Insomnia, AE (any cause; all grades) [4, 8]: 1 n
- Musculoskeletal pain, AE (any cause; all grades) [4, 8]: 0 n
- Nausea, AE (any cause; all grades) [4, 8]: 1 n
- Neutropenia, AE (any cause; all grades) [4, 8]: 1 n
- Neutropenia, grade ≥3 adverse event [4, 8]: 1 n
- Oropharyngeal pain, AE (any cause; all grades) [4, 8]: 0 n
- Peripheral edema, AE (any cause; all grades) [4, 8]: 0 n
- Petechiae, AE (any cause; all grades) [4, 8]: 1 n
- Pneumonia, AE (any cause; all grades) [4, 8]: 0 n
- Pneumonia, grade ≥3 adverse event [4, 8]: 0 n
- Pyrexia, AE (any cause; all grades) [4, 8]: 0 n
- Rash, AE (any cause; all grades) [4, 8]: 0 n
- Stomatitis, AE (any cause; all grades) [4, 8]: 2 n
- Stomatitis, grade ≥3 adverse event [4, 8]: 2 n
- Thrombocytopenia, grade ≥3 adverse event (grade 4) [4, 8]: 0 n
- Vomiting, AE (any cause; all grades) [4, 8]: 1 n
- ECG assessment [4, 10]: no clinically significant changes
- Vital signs, hematology, or clinical chemistry parameters [4, 10]: no clinically relevant adverse changes
- Dose interruptions due to AEs [4, 11]: Three
- Grade ≥3 febrile neutropenia, patients [4, 11]: 59%
- SAE febrile neutropenia [4, 11]: 36%
- SAE stomatitis [4, 11]: 9%
- SAEs considered related to study treatment [4, 11]: Five
- Serious AEs (SAEs), patients [4, 11]: 68%
